These are literature values, as cited in patent US20240166971A1, “CONTACT LENS TREATING SOLUTION” (Bausch + Lomb Ireland Limited, priority 2022, published 2024).

Structures are written as SMILES.

For the series, the system named is Gram-positive bacteria. The following applies: known property.

Regarding `CCCCC(CC)COCC(O)CO` (stereo not shown) [EHOPD, 3-[(2-ethylhexyl)oxy]-1,2-propanediol], the antimicrobial activity result is “exhibit antimicrobial activity”.
